Experimental data from patent US9938273B2 (Plexxikon Inc., priority 2015, dated 2018).
pIC50: −log10 of the molar value.

Assays:
[1] = system: MOLM-14 D835Y cells, FLT3 ITD and FLT3 D835Y; assay: Cell proliferation assay (CellTiter-Glo), MOLM-14 D835Y; format: cell-based; details: Homo sapiens, 72 h, 3d-Growth, GMean
Method in brief: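 MOLM-14 AML cells (endogenous FLT3 ITD, AC220-selected D835Y or F691L variants) or murine Ba/F3 expressing full-length FLT3 ITD/D835Y, without IL-3 for FLT3 dependence, 1×10^4 cells/well. Eight-point 1:3 series from 1 μM final, 0.2% DMSO, 3 days at 37 °C. CellTiter-Glo luminescence (ATP) gave IC50.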

FLT3-ITD = biological target: T1, FLT3-ITD (Homo sapiens, UniProt P36888); assay: AlphaScreen kinase assay with recombinant enzyme, FLT3-ITD; format: biochemical; details: 8pt; read-out: FLT3_ITD 8pt: IC50
T1 sequence (P36888 1-993): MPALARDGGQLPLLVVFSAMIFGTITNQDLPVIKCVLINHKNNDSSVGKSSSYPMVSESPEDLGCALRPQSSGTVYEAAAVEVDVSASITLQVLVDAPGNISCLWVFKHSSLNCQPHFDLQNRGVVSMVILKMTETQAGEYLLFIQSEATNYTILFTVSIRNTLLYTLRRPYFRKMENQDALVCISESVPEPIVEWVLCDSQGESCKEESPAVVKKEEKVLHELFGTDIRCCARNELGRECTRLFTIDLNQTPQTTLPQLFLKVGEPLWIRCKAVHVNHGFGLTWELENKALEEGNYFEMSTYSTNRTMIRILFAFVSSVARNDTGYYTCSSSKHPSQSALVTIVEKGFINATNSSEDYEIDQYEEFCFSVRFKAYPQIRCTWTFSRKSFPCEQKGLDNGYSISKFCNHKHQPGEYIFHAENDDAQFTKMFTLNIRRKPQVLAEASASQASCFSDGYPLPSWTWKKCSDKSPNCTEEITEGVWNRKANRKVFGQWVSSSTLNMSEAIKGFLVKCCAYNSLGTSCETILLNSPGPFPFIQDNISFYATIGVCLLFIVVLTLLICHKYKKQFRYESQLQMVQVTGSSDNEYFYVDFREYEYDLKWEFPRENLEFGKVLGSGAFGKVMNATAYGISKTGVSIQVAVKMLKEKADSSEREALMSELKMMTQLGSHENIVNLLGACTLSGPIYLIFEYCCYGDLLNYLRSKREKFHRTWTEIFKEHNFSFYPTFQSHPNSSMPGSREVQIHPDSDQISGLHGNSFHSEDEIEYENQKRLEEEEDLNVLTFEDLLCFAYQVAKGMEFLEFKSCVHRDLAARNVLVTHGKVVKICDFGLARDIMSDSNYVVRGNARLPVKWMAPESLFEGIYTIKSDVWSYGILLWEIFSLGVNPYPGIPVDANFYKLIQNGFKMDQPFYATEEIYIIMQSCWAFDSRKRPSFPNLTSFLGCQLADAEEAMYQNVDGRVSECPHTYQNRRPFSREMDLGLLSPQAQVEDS
Method in brief: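 Compounds in DMSO added to enzyme plus biotin-poly(Glu4-Tyr) (30 nM) in assay buffer, then ATP added. Streptavidin donor beads added (20 min, RT), then PY20 acceptor beads (60 min, RT), both at 10 μg/mL final in stop/detection buffer. IC50 conditions: 10 μM FLT3-D835Y/ITD, 100 μM c-KIT.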

| pIC50 [1] | pIC50 (FLT3-ITD) | Compound |
| --- | --- | --- |
| 5.00 to 10.00 | 5.00 to 10.00 | CC(C)(C#N)NC(=O)c1cccc(-c2cnc3[nH]c(C4=CCSCC4)cc3c2)n1 [Compound P-0180, N-(1-cyano-1-methyl-ethyl)-6-[2-(3,6-dihydro-2H-thiopyran-4-yl)-1H-pyrrolo[2,3-b]pyridin-5-yl]pyridine-2-carboxamide] |
| 5.00 to 10.00 | 5.00 to 10.00 | CC(C)(C#N)NC(=O)c1cccc(-c2cnc3[nH]c(C4=CCN(C(=O)C5CC5)CC4)cc3c2)n1 [Compound P-0181, N-(1-cyano-1-methyl-ethyl)-6-[2-[1-(cyclopropanecarbonyl)-3,6-dihydro-2H-pyridin-4-yl]-1H-pyrrolo[2,3-b]pyridin-5-yl]pyridine-2-carboxamide] |
| 5.00 to 10.00 | 5.00 to 10.00 | CC(C)(C#N)NC(=O)c1cccc(-c2cnc3[nH]c(-c4cn[nH]c4)cc3c2)n1 [Compound P-0183, N-(1-cyano-1-methyl-ethyl)-6-[2-(1H-pyrazol-4-yl)-1H-pyrrolo[2,3-b]pyridin-5-yl]pyridine-2-carboxamide] |
| 5.00 to 10.00 | 5.00 to 10.00 | CC(C)(C#N)NC(=O)c1cccc(-c2cnc3[nH]c(-c4cnn(C5CCNCC5)c4)cc3c2)n1 [Compound P-0187, N-(1-cyano-1-methyl-ethyl)-6-[2-[1-(4-piperidyl)pyrazol-4-yl]-1H-pyrrolo[2,3-b]pyridin-5-yl]pyridine-2-carboxamide] |
| 5.00 to 10.00 | 5.00 to 10.00 | CC(C)(C#N)NC(=O)c1cccc(-c2cnc3[nH]c(C4=CCN(S(=O)(=O)C5CC5)CC4)cc3c2)n1 [Compound P-0188, N-(1-cyano-1-methyl-ethyl)-6-[2-(1-cyclopropylsulfonyl-3,6-dihydro-2H-pyridin-4-yl)-1H-pyrrolo[2,3-b]pyridin-5-yl]pyridine-2-carboxamide] |
| 5.00 to 10.00 | 5.00 to 10.00 | CC(C)(C#N)NC(=O)c1cccc(-c2cnc3[nH]c(-c4ccc(C5CC5)cc4)cc3c2)n1 [Compound P-0189, N-(1-cyano-1-methyl-ethyl)-6-[2-(4-cyclopropylphenyl)-1H-pyrrolo[2,3-b]pyridin-5-yl]pyridine-2-carboxamide] |

| Compound | pIC50 [1] | pIC50 (FLT3-ITD) |
| --- | --- | --- |
| CC(C)(C#N)NC(=O)c1cccc(-c2cnc3[nH]c(C4=CCNCC4)cc3c2)n1 [Compound P-0182, N-(1-cyano-1-methyl-ethyl)-6-[2-(1,2,3,6-tetrahydropyridin-4-yl)-1H-pyrrolo[2,3-b]pyridin-5-yl]pyridine-2-carboxamide] | 5.00 to 10.00 | 5.00 to 10.00 |
